Source: US12209087B2, “AKT1 modulators” (Alterome Therapeutics, Inc., priority 2022, dated 2025)

Target: T1, full length AKT E17K (Homo sapiens, UniProt P31749, E17K)
T1 construct: host or cells: HEK-293 (ATCC CRL-1573)
Test: NanoBRET Target Engagement (TE) Assay
Type: cell-based
Settings: competitive tracer displacement in living cells, read-out: AKT1 E17K IC50
How it was run: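 Compound and tracer incubated 2 h before luminescence at donor 450 nm and acceptor 600 nm, with extracellular signal inhibited. EC50 by sigmoidal variable-slope regression.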

T1 sequence (P31749 whole entry E17K): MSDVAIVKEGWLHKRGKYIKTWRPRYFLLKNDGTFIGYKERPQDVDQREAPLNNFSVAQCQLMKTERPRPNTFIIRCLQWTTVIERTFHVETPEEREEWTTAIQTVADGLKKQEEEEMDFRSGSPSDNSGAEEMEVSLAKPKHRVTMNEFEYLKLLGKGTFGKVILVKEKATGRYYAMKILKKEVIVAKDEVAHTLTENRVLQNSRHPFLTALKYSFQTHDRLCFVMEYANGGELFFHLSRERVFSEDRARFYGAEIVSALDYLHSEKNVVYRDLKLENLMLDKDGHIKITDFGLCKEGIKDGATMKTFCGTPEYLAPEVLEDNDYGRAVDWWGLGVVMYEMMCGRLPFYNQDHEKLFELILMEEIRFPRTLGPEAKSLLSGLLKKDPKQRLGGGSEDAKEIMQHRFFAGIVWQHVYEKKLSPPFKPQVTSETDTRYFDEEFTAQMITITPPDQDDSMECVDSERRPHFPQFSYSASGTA

Structure (SMILES)	IC50 [µM]
N#Cc1ccnc(N2CCN(Cc3ccc(-n4c(-c5cccnc5N)nc5ccc(-c6ccccc6)nc54)cc3)CC2)n1 [Example 68, 2-(4-(4-(2-(2-Aminopyridin-3-yl)-5-phenyl-3H-imidazo[4,5-b]pyridin-3-yl)benzyl)piperazin-1-yl)pyrimidine-4-carbonitrile]	< 0.015
N#Cc1cccc(C(=O)N2CCN(Cc3ccc(-n4c(-c5cccnc5N)nc5cccnc54)cc3)CC2)n1 [Example 69, 6-(4-(4-(2-(2-Aminopyridin-3-yl)-3H-imidazo[4,5-b]pyridin-3-yl)benzyl)piperazine-1-carbonyl)picolinonitrile]	0.6 to 10
N#Cc1nnccc1C(=O)N1CCN(Cc2ccc(-n3c(-c4cccnc4N)nc4ccc(-c5ccccc5)nc43)cc2)CC1 [Example 70, 4-(4-(4-(2-(2-Aminopyridin-3-yl)-5-phenyl-3H-imidazo[4,5-b]pyridin-3-yl)benzyl)piperazine-1-carbonyl)pyridazine-3-carbonitrile]	0.06 to 0.6
N#Cc1nnccc1C(=O)NC1CCN(Cc2ccc(-n3c(-c4cccnc4N)nc4ccc(-c5ccccc5)nc43)cc2)CC1 [Example 71, N-(1-(4-(2-(2-Aminopyridin-3-yl)-5-phenyl-3H-imidazo[4,5-b]pyridin-3-yl)benzyl)piperidin-4-yl)-3-cyanopyridazine-4-carboxamide]	0.015 to 0.06
N#Cc1cncnc1C(=O)N1CCN(Cc2ccc(-n3c(-c4cccnc4N)nc4ccc(-c5ccccc5)nc43)cc2)CC1 [Example 72, 4-(4-(4-(2-(2-Aminopyridin-3-yl)-5-phenyl-3H-imidazo[4,5-b]pyridin-3-yl)benzyl)piperazine-1-carbonyl)pyrimidine-5-carbonitrile]	0.6 to 10
N#Cc1cncnc1C(=O)NC1CCN(Cc2ccc(-n3c(-c4cccnc4N)nc4ccc(-c5ccccc5)nc43)cc2)CC1 [Example 73, N-(1-(4-(2-(2-Aminopyridin-3-yl)-5-phenyl-3H-imidazo[4,5-b]pyridin-3-yl)benzyl)piperidin-4-yl)-5-cyanopyrimidine-4-carboxamide]	0.015 to 0.06
N#Cc1cncc(NC2CCN(Cc3ccc(-n4c(-c5cccnc5N)nc5cccnc54)cc3)CC2)c1 [Example 74, 5-((1-(4-(2-(2-Aminopyridin-3-yl)-3H-imidazo[4,5-b]pyridin-3-yl)benzyl)piperidin-4-yl)amino)nicotinonitrile]	0.6 to 10
N#Cc1ccnc(NC2CCN(Cc3ccc(-n4c(-c5cccnc5N)nc5cccnc54)cc3)CC2)c1 [Example 75, 2-((1-(4-(2-(2-Aminopyridin-3-yl)-3H-imidazo[4,5-b]pyridin-3-yl)benzyl)piperidin-4-yl)amino)isonicotinonitrile]	0.6 to 10
N#Cc1cncc(NC2CCN(Cc3ccc(-n4c(-c5cccnc5N)nc5cccnc54)cc3)CC2)n1 [Example 76, 6-((1-(4-(2-(2-Aminopyridin-3-yl)-3H-imidazo[4,5-b]pyridin-3-yl)benzyl)piperidin-4-yl)amino)pyrazine-2-carbonitrile]	0.6 to 10
N#Cc1ccnc(NC2CCN(Cc3ccc(-n4c(-c5cccnc5N)nc5cccnc54)cc3)CC2)n1 [Example 77, 2-((1-(4-(2-(2-Aminopyridin-3-yl)-3H-imidazo[4,5-b]pyridin-3-yl)benzyl)piperidin-4-yl)amino)pyrimidine-4-carbonitrile]	0.06 to 0.6
N#Cc1cc(N2CCN(Cc3ccc(-n4c(-c5cccnc5N)nc5ccc(-c6ccccc6)nc54)cc3)CC2)ncn1 [Example 78, 6-(4-(4-(2-(2-Aminopyridin-3-yl)-5-phenyl-3H-imidazo[4,5-b]pyridin-3-yl)benzyl)piperazin-1-yl)pyrimidine-4-carbonitrile]	< 0.015
N#Cc1cncc(C(=O)N2CCN(Cc3ccc(-n4c(-c5cccnc5N)nc5cccnc54)cc3)CC2)c1 [Example 79, 5-(4-(4-(2-(2-Aminopyridin-3-yl)-3H-imidazo[4,5-b]pyridin-3-yl)benzyl)piperazine-1-carbonyl)nicotinonitrile]	0.6 to 10
N#Cc1ccc(C(=O)N2CCN(Cc3ccc(-n4c(-c5cccnc5N)nc5cccnc54)cc3)CC2)nc1 [Example 80, 6-(4-(4-(2-(2-Aminopyridin-3-yl)-3H-imidazo[4,5-b]pyridin-3-yl)benzyl)piperazine-1-carbonyl)nicotinonitrile]	0.6 to 10
N#Cc1ccc(C(=O)NC2CCN(Cc3ccc(-n4c(-c5cccnc5N)nc5ccc(-c6ccccc6)nc54)cc3)CC2)nc1 [Example 81, N-(1-(4-(2-(2-Aminopyridin-3-yl)-5-phenyl-3H-imidazo[4,5-b]pyridin-3-yl)benzyl)piperidin-4-yl)-5-cyanopicolinamide]	0.06 to 0.6
N#Cc1cc(N2CCN(Cc3ccc(-n4c(-c5cccnc5N)nc5ccc(-c6ccccc6)nc54)cc3)CC2)ccn1 [Example 82, 4-(4-(4-(2-(2-Aminopyridin-3-yl)-5-phenyl-3H-imidazo[4,5-b]pyridin-3-yl)benzyl)piperazin-1-yl)picolinonitrile]	0.015 to 0.06
N#Cc1cccc(N2CCN(Cc3ccc(-n4c(-c5cccnc5N)nc5ccc(-c6ccccc6)nc54)cc3)CC2)n1 [Example 83, 6-(4-(4-(2-(2-Aminopyridin-3-yl)-5-phenyl-3H-imidazo[4,5-b]pyridin-3-yl)benzyl)piperazin-1-yl)picolinonitrile]	0.06 to 0.6

Structure (SMILES)	IC50 [µM]
N#Cc1ccc(NC2CCN(Cc3ccc(-n4c(-c5cccnc5N)nc5ccc(-c6ccccc6)nc54)cc3)CC2)cn1 [Example 84, 5-((1-(4-(2-(2-Aminopyridin-3-yl)-5-phenyl-3H-imidazo[4,5-b]pyridin-3-yl)benzyl)piperidin-4-yl)amino)picolinonitrile]	0.015 to 0.06
N#Cc1cc(NC2CCN(Cc3ccc(-n4c(-c5cccnc5N)nc5ccc(-c6ccccc6)nc54)cc3)CC2)ccn1 [Example 85, 4-((1-(4-(2-(2-Aminopyridin-3-yl)-5-phenyl-3H-imidazo[4,5-b]pyridin-3-yl)benzyl)piperidin-4-yl)amino)picolinonitrile]	< 0.015
N#Cc1cccc(NC2CCN(Cc3ccc(-n4c(-c5cccnc5N)nc5ccc(-c6ccccc6)nc54)cc3)CC2)n1 [Example 86, 6-((1-(4-(2-(2-Aminopyridin-3-yl)-5-phenyl-3H-imidazo[4,5-b]pyridin-3-yl)benzyl)piperidin-4-yl)amino)picolinonitrile]	0.06 to 0.6
N#Cc1ccnc(NC2CCN(Cc3ccc(-n4c(-c5cccnc5N)nc5ccc(-c6ccccc6)nc54)cc3)CC2)c1 [Example 87, 2-((1-(4-(2-(2-Aminopyridin-3-yl)-5-phenyl-3H-imidazo[4,5-b]pyridin-3-yl)benzyl)piperidin-4-yl)amino)isonicotinonitrile]	0.06 to 0.6
N#Cc1nccc(NC2CCN(Cc3ccc(-n4c(-c5cccnc5N)nc5ccc(-c6ccccc6)nc54)cc3)CC2)n1 [Example 88, 4-((1-(4-(2-(2-Aminopyridin-3-yl)-5-phenyl-3H-imidazo[4,5-b]pyridin-3-yl)benzyl)piperidin-4-yl)amino)pyrimidine-2-carbonitrile]	< 0.015
N#Cc1cncc(NC2CCN(Cc3ccc(-n4c(-c5cccnc5N)nc5ccc(-c6ccccc6)nc54)cc3)CC2)n1 [Example 89, 6-((1-(4-(2-(2-Aminopyridin-3-yl)-5-phenyl-3H-imidazo[4,5-b]pyridin-3-yl)benzyl)piperidin-4-yl)amino)pyrazine-2-carbonitrile]	< 0.015
N#Cc1ccnc(NC2CCN(Cc3ccc(-n4c(-c5cccnc5N)nc5ccc(-c6ccccc6)nc54)cc3)CC2)n1 [Example 90, 2-((1-(4-(2-(2-Aminopyridin-3-yl)-5-phenyl-3H-imidazo[4,5-b]pyridin-3-yl)benzyl)piperidin-4-yl)amino)pyrimidine-4-carbonitrile]	< 0.015
N#Cc1cc(NC2CCN(Cc3ccc(-n4c(-c5cccnc5N)nc5ccc(-c6ccccc6)nc54)cc3)CC2)ncn1 [Example 91, 6-((1-(4-(2-(2-Aminopyridin-3-yl)-5-phenyl-3H-imidazo[4,5-b]pyridin-3-yl)benzyl)piperidin-4-yl)amino)pyrimidine-4-carbonitrile]	< 0.015
N#Cc1nccc(NC2CCN(Cc3ccc(-n4c(-c5cccnc5N)nc5cccnc54)cc3)CC2)n1 [Example 92, 4-((1-(4-(2-(2-Aminopyridin-3-yl)-3H-imidazo[4,5-b]pyridin-3-yl)benzyl)piperidin-4-yl)amino)pyrimidine-2-carbonitrile]	0.015 to 0.06
N#Cc1cncc(NC2CCN(Cc3ccc(-n4c(-c5cccnc5N)nc5ccc(-c6ccccc6)nc54)cc3)CC2)c1 [Example 93, 5-((1-(4-(2-(2-Aminopyridin-3-yl)-5-phenyl-3H-imidazo[4,5-b]pyridin-3-yl)benzyl)piperidin-4-yl)amino)nicotinonitrile]	0.06 to 0.6
N#Cc1ccc(N2CCN(Cc3ccc(-n4c(-c5cccnc5N)nc5ccc(-c6ccccc6)nc54)cc3)CC2)cn1 [Example 94, 5-(4-(4-(2-(2-Aminopyridin-3-yl)-5-phenyl-3H-imidazo[4,5-b]pyridin-3-yl)benzyl)piperazin-1-yl)picolinonitrile]	0.06 to 0.6
N#Cc1ncc(NCc2ccc(-n3c(-c4cccnc4N)nc4cccnc43)cc2)cn1 [Example 95, 5-((4-(2-(2-Aminopyridin-3-yl)-3H-imidazo[4,5-b]pyridin-3-yl)benzyl)amino)pyrimidine-2-carbonitrile]	0.6 to 10
N#Cc1ncc(N2CCN(Cc3ccc(-n4c(-c5cccnc5N)nc5ccc(-c6ccccc6)nc54)cc3)CC2)cn1 [Example 97, 5-(4-(4-(2-(2-aminopyridin-3-yl)-5-phenyl-3H-imidazo[4,5-b]pyridin-3-yl)benzyl)piperazin-1-yl)pyrimidine-2-carbonitrile]	0.015 to 0.06
N#Cc1ncccc1C(=O)NCc1ccc(-n2c(-c3cccnc3N)nc3cccnc32)cc1 [Example 98, N-(4-(2-(2-Aminopyridin-3-yl)-3H-imidazo[4,5-b]pyridin-3-yl)benzyl)-2-cyanonicotinamide]	0.6 to 10
N#Cc1cnccc1C(=O)NCc1ccc(-n2c(-c3cccnc3N)nc3cccnc32)cc1 [Example 99, N-(4-(2-(2-Aminopyridin-3-yl)-3H-imidazo[4,5-b]pyridin-3-yl)benzyl)-3-cyanoisonicotinamide]	0.6 to 10
